Reference: patent US7329688B2, “Natural vitamin E compositions with superior antioxidant potency” (Soft Gel Technologies, Inc., priority 2002, dated 2008)

Assay: Oxygen radical absorbance capacity (ORACFL-LIPO) assay with fluorescein probe, RMCD, AAPH, Trolox standard
Conditions: for Antioxidant activity (ORAC), μmole Trolox equivalent per gram sample: 75 mM phosphate buffer pH 7.4, 7% RMCD; for Antioxidant activity (ORAC) per 400 IU: μmole TE/g × total weight in grams of formula which gives 400 IU
Protocol: The antioxidant activities of natural d-alpha-tocopherol, mixed tocopherols and tocotrienols, and formulations comprising all forms of vitamin E were determined employing an improved oxygen radical absorbance capacity (ORAC) assay using fluorescein (FL) as a fluorescent probe, randomly methylated β-cyclodextrin (RMCD) to enhance solubility of lipophilic antioxidants in aqueous medium, 2,2′-azobis (2-amidino-propane) dihydrochloride (AAPH) as peroxyl radical generator, and Trolox as a standard in 75 mM phosphate buffer.
(§1) The antioxidant activity, commonly referred to as oxygen radical absorbance capacity (ORAC), of a lipophilic substance was measured employing a newly developed assay. This assay is based on the use of: (a) fluorescein (FL) as the fluorescent probe, (b) randomly methylated β-cyclodextrin (RMCD) as a molecular host to enhance the solubility of lipophilic antioxidants in aqueous solution, (c) 2,2′-azobis (2-amidino-propane) dihydrochloride (AAPH) as a peroxyl radical generator, and (d) 6-hydroxy-2,5,7,8-tetramethyl-2-carboxylic acid (Trolox) as a standard in 75 mM phosphate buffer (pH 7.4).
The antioxidant activities of vitamin E formulations comprising all compounds of tocopherols and tocotrienols were determined employing an improved oxygen radical absorbance capacity (abbreviated ORACFL-LIPO) assay using fluorescein (FL) as the fluorescent probe, randomly methylated β-cyclodextrin (RMCD) as the water solubility enhancer for lipophilic antioxidants in 75 mM phosphate buffer (pH 7.4).
In the presence ofperoxyl radicals derived from AAPH, the indicator FL gradually loses its fluorescence. The antioxidant activity of a substance is measured by its ability to retain the fluorescence of FL in the presence of peroxyl radicals. The net protection of FL was measured as previously described by Ou et al.
All other standards were commercially available form Sigma or Aldrich. All ORAC analyses were performed on a COBAS FARA II analyzer (Roche Diagnostic System Inc., Branchburg, NJ) using an excitation wavelength of 493 nm and an emission filter of 515 nm.
Approximately 0.5 g of sample was dissolved in 20 mL of acetone. An aliquot of sample solution was appropriately diluted with 7% RMCD solvent (w/v) made in a 50% acetone-water mixture (v/v) and was shaken for 1 hr at room temperature on an orbital shaker at 400 rpm. The sample solution was ready for analysis after further dilution with 7% RMCD solvent.
The automated ORAC assay was carried out on a COBAS FARA II spectrofluorometer centrifugal analyzer as previously described (9). With the exception of samples and Trolox standards, which were made in 7% RMCD solvent, all other reagents were prepared at 75 mM phosphate buffer (pH 7.4). In the final assay mixture (0.4 mL total volume), FL (6.3×10^−8 M) was used as a target of free radical attack and AAPH (1.28×10^−2 M) was used as a peroxyl radical generator. 7% RMCD was used as the blank, and Trolox (12.5, 25,50, and 100 μM) was used as the control standard. The analyzer was programmed to record the fluorescence of FL every minute after the addition of AAPH. All measurements were expressed relative to the initial reading. Final results were calculated using the differences of areas under the FL decay curves between the blank and a sample.
as §1, with “6-hydroxy-2,5,7,8-tetrmethyl-2-carboxylic” for “6-hydroxy-2,5,7,8-tetramethyl-2-carboxylic”
In the presence of peroxyl radicals derived from AAPH, the indicator FL gradually loses its fluorescence. […]

SMILES	Antioxidant activity (ORAC), μmole Trolox equivalent per gram sample (Table 1)	Antioxidant activity (ORAC) in words, relative to d-alpha-tocopherol (qualitative statement)	Antioxidant activity (ORAC), μmole Trolox equivalent per gram sample (Table 1, listed as alpha-tocopherol (87%))	Antioxidant activity (ORAC), μmole Trolox equivalent per gram sample (Table 1, listed as d-alpha-tocopherol (87%))	Antioxidant activity (ORAC) per 400 IU (Table 1)	Antioxidant activity (ORAC), μmole Trolox equivalent per gram sample (Table 2)	Antioxidant activity (ORAC) per 400 IU (Table 2)
CC(=O)Oc1c(C)c(C)c2c(c1C)CCC(C)(CCC[C@H](C)CCC[C@H](C)CCCC(C)C)O2 (stereo partly drawn) [Alpha-Tocopherol Acetate]	14 ± 10 μmole TE/g	no antioxidant activity					
Cc1c(C)c2c(c(C)c1O)CC[C@@](C)(CCC[C@H](C)CCC[C@H](C)CCCC(C)C)O2 [d-alpha-Tocopheral (87%), d-alpha-tocopherol]	1,293 ± 64 μmole TE/g		1,293 μmole TE/g	1,293 μmole TE/g	398 μmole TE/400IU	1,293 ± 80 μmole TE/g	413 μmole TE/400IU
